Values quoted from earlier work as cited in patent publication US6521254B2, “Single-dose antihistamine/decongestant formulations for treating rhinitis” (J-Med Pharmaceuticals, Inc., priority 1998, dated 2003).

Columns and labels:
[1] = compared with other non-sedating and with sedating antihistamines
histamine receptors = details: for duration of therapeutic benefit suitable for dosing interval (FDA standard, labeling): cetirizine 5 mg and 10 mg, loratidine 10 mg, fexofenadine 180 mg
[2] = 30 mg pseudoephedrine, immediate release, syrup

Row | SMILES | sedation [1] | duration of therapeutic antihistaminic benefit (histamine receptors; 5 mg cetirizine, immediate release) [h] | duration of therapeutic benefit suitable for dosing interval (FDA standard, labeling) (histamine receptors) [h] | duration of antihistaminic effect (histamine receptors; oral, human) [h] | time after dosing at which antihistaminic effect is exerted (onset) (histamine receptors; oral, human, given alone / immediate release) | duration of action [2] [h]
1 | O=C(O)COCCN1CCN(C(c2ccccc2)c2ccc(Cl)cc2)CC1 (centres unmarked) [cetirizine] | slightly more sedation than other non-sedating antihistamines | 24 | 24 | 24 | one | –
2 | CCOC(=O)N1CCC(=C2c3ccc(Cl)cc3CCc3cccnc32)CC1 [loratidine] | – | – | 24 | > 24 | – | –
3 | CN[C@@H](C)[C@@H](O)c1ccccc1 [pseudoephedrine] | – | – | – | – | – | 4 to 6
